ChEMBL document CHEMBL1268973, “Flavonoids from Dracocephalum tanguticum and their cardioprotective effects against doxorubicin-induced toxicity in H9c2 cells” (Bioorg Med Chem Lett, 2010)
The source made the active and inactive calls. The calls are words filed in the database; no cut-off is given here.

Experiments:
H9c2 [1] = test: Cytoprotective activity against doxorubicin-induced cytotoxicity in rat H9c2 cells assessed as cell viability after 24 hrs by MTT assay; format: functional, cell-based
[2] = tested on: Radical scavenging activity; test: Antioxidant activity of the compound assessed as DPPH radical scavenging activity after 30 mins; format: functional
[3] = Antioxidant activity assessed as ABTS radical scavenging activity; format: functional
[4] = Antioxidant activity assessed as ferrous ion chelating activity; format: functional
H9c2 [5] = test: Cytoprotective activity against in rat H9c2 cells assessed as inhibition of doxorubicin-induced cell death after 24 hrs by MTT assay; format: functional, cell-based
H9c2 [6] = test: Cytoprotective activity against rat H9c2 cells assessed as reduction in doxorubicin-induced CK release at 5 to 20 uM after 24 hrs; format: functional, cell-based
H9c2 [7] = test: Cytoprotective activity against rat H9c2 cells assessed as inhibition of doxorubicin-induced intracellular ROS elevation at 5 to 20 uM after 24 hrs; format: functional, cell-based
H9c2 [8] = test: Cytoprotective activity against rat H9c2 cells assessed as inhibition of doxorubicin-induced intracellular Ca2+ elevation; format: functional, cell-based
H9c2 [9] = test: Cytoprotective activity against rat H9c2 cells assessed as reduction in doxorubicin-induced LDH release at 5 to 20 uM after 24 hrs; format: functional, cell-based
H9c2 [10] = test: Cytoprotective activity against rat H9c2 cells assessed as inhibition of doxorubicin-induced morphological changes at 10 to 40 uM after 24 hrs; format: functional, cell-based
H9c2 [11] = test: Effect on doxorubicin-induced total apoptosis in rat H9c2 cells at 20 uM; format: functional, cell-based
[12] = Rattus norvegicus, H9c2, 24 h, read-out: EC50

Row | Compound | EC50 [2] | EC50 [3] | EC50 [4] | EC50 (H9c2 [1]; [12]) | EC50 (H9c2 [1]; h9c2) | other results
1 | O=C1C[C@@H](c2ccc(O)cc2)Oc2cc(O)cc(O)c21 [NARINGENIN] | 72.3 µM | 13.5 µM | 21.4 mM | – | Not Active | –
2 | CCOC(=O)[C@H]1O[C@@H](Oc2cc(O)c3c(=O)cc(-c4ccc(O)c(O)c4)oc3c2)[C@H](O)[C@@H](O)[C@@H]1O | 13.2 µM | 87.8 µM | 3.31 mM | 6.34 µM | – | –
3 | O=c1cc(-c2ccc(O)c(O)c2)oc2cc(O)cc(O)c12 [LUTEOLIN] | 6.12 µM | 105 µM | 12 mM | 5.53 µM | – | –
4 | O=C1C[C@@H](c2ccc(O)cc2)Oc2cc(O[C@@H]3O[C@H](CO)[C@@H](O)[C@H](O)[C@H]3O)cc(O)c21 [PRUNIN] | 40.6 µM | 18.1 µM | – | – | Not Active | –
5 | COc1cc2oc(-c3ccc(O)cc3)cc(=O)c2c(O)c1O[C@@H]1O[C@H](CO)[C@@H](O)[C@H](O)[C@H]1O | 159 µM | 581 µM | – | – | Not Active | –
6 | COc1ccc(-c2cc(=O)c3c(O)cc(O[C@@H]4O[C@H](CO)[C@@H](O)[C@H](O)[C@H]4O)cc3o2)cc1 [TILIANINE] | 95 µM | 400 µM | – | – | Not Active | –
7 | O=c1cc(-c2ccc(O)c(O)c2)oc2cc(O[C@@H]3O[C@H](CO)[C@@H](O)[C@H](O)[C@H]3O)cc(O)c12 [GALUTEOLIN] | 3.94 µM | 56.5 µM | 1.1 mM | 5.04 µM | – | Activity (H9c2 [5]): inactive; Activity (H9c2 [6]): Active; Activity (H9c2 [7]): Active; Activity (H9c2 [8]): Dose-dependent effect; Activity (H9c2 [9]): Active; Activity (H9c2 [10]): Active; Activity (H9c2 [11]): inactive

Further compounds by falling EC50 [2], results first:

Row | EC50 [2] | EC50 [3] | EC50 [4] | Compound | EC50 (H9c2 [1]; [12]) | EC50 (H9c2 [1]; h9c2) | other results
8 | 113 µM | 12.3 µM | 4.51 mM | COc1cc2oc(-c3ccc(O)cc3)cc(=O)c2c(O)c1O[C@@H]1O[C@H](COC(C)=O)[C@@H](O)[C@H](O)[C@H]1O | – | Not Active | –
9 | 98.8 µM | 1.15 µM | 8.37 mM | O=C1C[C@@H](c2ccc(O)c(O)c2)Oc2cc(O)cc(O)c21 [ERIODICTYOL] | 25.5 µM | – | –
10 | 95.2 µM | 76.2 µM | 1.13 mM | COc1cc2oc(-c3ccc(O)c(O)c3)cc(=O)c2c(O)c1O[C@@H]1O[C@H](COC(C)=O)[C@@H](O)[C@H](O)[C@H]1O | 19.1 µM | – | –
11 | 81.2 µM | 86.1 µM | 27.6 mM | COc1cc2oc(-c3ccc(O)c(O)c3)cc(=O)c2c(O)c1O[C@@H]1O[C@H](CO)[C@@H](O)[C@H](O)[C@H]1O | – | Not Active | –
12 | 32.1 µM | 16.3 µM | 161 mM | O=C1C[C@@H](c2cc(O)cc(O)c2)Oc2cc(O)cc(O)c21 | – | Not Active | –
13 | 31 µM | 15.7 µM | 0.06 mM | COc1cc2oc(-c3ccc(O)c(O[C@@H]4O[C@H](CO)[C@@H](O)[C@H](O)[C@H]4O)c3)cc(=O)c2c(O)c1O | 13.1 µM | – | –
14 | 20.4 µM | 13.1 µM | – | O=c1cc(-c2ccc(O)cc2)oc2cc(O[C@@H]3O[C@H](CO)[C@@H](O)[C@H](O)[C@H]3O)cc(O)c12 [APIGETRIN] | 12.3 µM | – | –
15 | 20 µM | 13.4 µM | – | COc1cc2oc(-c3ccc(O)cc3)cc(=O)c2c(O)c1O | – | Not Active | –
16 | 15.6 µM | 7.26 µM | 213 mM | O=C1C[C@@H](c2ccc(O)c(O)c2)Oc2cc(O[C@@H]3O[C@H](CO)[C@@H](O)[C@H](O)[C@H]3O)cc(O)c21 | 38.2 µM | – | –
